# Laboratory results published in US11364311B2, “Method of identifying ASD phenotype 1 patients” (Stalicla S.A., priority 2017, dated 2022).
# Like-named read-outs stand apart in the source and are kept apart here.
# What was measured:
# humans = conditions: cited from earlier work
# ASD phenotype 2 patients = conditions: for Clinical significance (CGI-I): after 3 days of sulforaphane administration; for ADI-R-RI S score / ADI-R-C S score / ADI-R-SI S score: day 3 of challenge test, given as broccoli sprout extract as in example 3; for ADI-R-SI S score: B score 16
# Procedure: The effects of sulforaphane containing Broccoli sprout extract was observed and quantified in 7 individuals suffering from ASD and previously classified as either phenotype 1 or phenotype 2 patients.
# We describe a procedure consisting of an evaluation of patients with ASD prior and after administration of broccoli sprout extract. The extract was prepared from selected broccoli seeds known to have high yield of sulforaphane which were surface-disinfected and grown (sprouted) for 3 days in a commercial sprouting facility under controlled light and moisture conditions. A boiling water extract was prepared, filtered, cooled, and treated with the enzyme myrosinase (from daikon sprouts) to convert precursor glucosinolates to isothiocyanates. Behavioral evaluation of patients was performed prior, during and after administration of sulforaphane-containing broccoli sprout extract. Baseline evaluation of patients was performed using standard clinical endpoints (ADI-R subscales ADI-SI, ADI-C and ADI-RI).
# Challenge regimen consisted of the administration of a Broccoli Sprout Extract dose corresponding to a total daily dosage of 4 μmol/kg of sulforaphane, administered in 3 doses over the course of the day.
# The assessment of baseline scores and post challenge test scores was conducted by two experienced clinicians with extensive experience in conducting ASD clinical assessments, both of which separately rated the patients. In case of diverging scores in test subscales at baseline or after administration of the challenge test, the lowest severity score was retained. Assessment of clinical endpoints was performed at day 3 of administration of challenge test. Behavioral Outcome Measures: (primary efficacy endpoints): ABC, SRS; CGI-S, CGI-I and ADI-R (ADI-SI, ADI-C, ADI-RI).
# [1] = system: lymphoblastoid cell lines of ASD phenotype 1 patients; assay: Energy production (NADH) in Biolog Phenotype Mammalian MicroArrays, phenotype 1 cells; type: cell-based, human; conditions: cells exposed to the factor; Figure 1 (AUC) and Table 1
# Source text: The phenotype 1 cohort (Phi) selected far in vitro experiments was composed by 14 males and 1 female (ratio 14:1), with an age range of 2-17 years (average 7.7).
# From all subjects, blood samples were collected and lymphoblastoid cell lines generated. Briefly, tubes containing anticoagulant citrate dextrose (ACD) were used to collect blood samples via venipuncture, in order to ensure that the blood cells remained metabolically active. The tubes were kept at room temperature and processed within 24 hours.
# Cell lines were obtained by immortalization of lymphocytes from blood samples using Epstein-Barr virus.
# Energy production of cells was measured using commercially available Phenotype Mammalian MicroArrays (PM-Ms, Biolog, Hayward, Calif., USA).
# The compound in each well was designed to be used by the cells, either as the sole energy source or as the metabolic effector influencing the utilization of an energy source (α-D-glucose) added in the cell suspension. […] Before plating, cell viability and number were assessed utilizing a BioRad cell counter and a trypan blue dye. The concentration of live cells required for plating was 4×10^5 cells/mL, corresponding to 20,000 cells per well in a volume of 50 μL. […] Cells were incubated for 48 h at 37° C. in 5% CO2, using the modified Biolog IF-M1 medium.
# The Biolog IF-M1 medium was modified for plates PM-M1 to M4 by adding the following to 100 mL of Biolog IF-M1: 1.1 mL of 100× penicillin/streptomycin solution, 0.18 mL of 200 mM glutamine (final concentration 0.3 mM), and 5.3 mL of Fetal Bovine Serum (FBS, final concentration 5%). For plates PM-M5 to M8, 5.5 mM α-D-glucose will be added in place of FBS.
# During the 48-hour incubation, the only energy source the cells had was the chemical in the well. After this first incubation, Biolog Redox Dye Mix MB was added (10 μL/well) and the plates were incubated under the same conditions for an additional 24 hours. As the cells metabolized the energy source, tetrazolium dye in the media was reduced, producing a purple color according to the amount of NADH generated.
# For the last 24 hours of the experiment, the plates were incubated in the Omnilog system, which collects optical density readings every 15 minutes, generating 96 data-points for each well. The system also elaborated the kinetic curve for the metabolic reaction in each well and extrapolated parameters such as slope, highest point, endpoint, area under the curve (AUC), and lag.
# At the end of the 24-hour incubation, the plates were analyzed utilizing a microplate reader with readings at 590 and 750 nm. The first value (A590) indicated the highest absorbance peak of the redox dye and the second value (A750) gave a measure of the background noise. The relative absorbance (A590-750) was calculated per well.
# [2] = Example 4 Patient 1 (phenotype 2)
# [3] = Example 4 Patient 2 (phenotype 2)
compound,measurement,setting,value
"C[S@@+]([O-])CCCCN=C=S [sulforaphane, 1-isothiocyanato-4R-(methylsulfinyl)butane]",tolerability of administration to humans,humans; humans,well tolerated
same,toxicity,humans; in vivo,low toxicity
same,Clinical significance (CGI-I),ASD phenotype 2 patients; [2],Very much improved
same,ADI-R-RI S score,"ASD phenotype 2 patients; Example 4 Patient 1 (phenotype 2), B score 3",3
same,ADI-R-C S score,"ASD phenotype 2 patients; Example 4 Patient 1 (phenotype 2), B score 12",10
same,ADI-R-SI S score,ASD phenotype 2 patients; [2],12
same,Clinical significance (CGI-I),ASD phenotype 2 patients; [3],Very much improved
same,ADI-R-RI S score,"ASD phenotype 2 patients; Example 4 Patient 2 (phenotype 2), B score 5",4
same,ADI-R-C S score,"ASD phenotype 2 patients; Example 4 Patient 2 (phenotype 2), B score 11",9
same,ADI-R-SI S score,ASD phenotype 2 patients; [3],14
FGF-1(aFGF): growth factor that selectively targets the PI3K-Akt-mTOR pathway,production of NADH in ASD phenotype 1 cells compared to TDs and non-phenotype 1 cells,[1],significantly reduced production of NADH
IGF-I: insulin-like growth factor 1,production of NADH in ASD phenotype 1 cells compared to TDs and non-phenotype 1 cells,[1],no significant differences
IL-1beta: Th1 cytokine,production of NADH in ASD phenotype 1 cells compared to TDs and non-phenotype 1 cells,[1],significantly lower levels of NADH
IL-6: Th1 cytokine,production of NADH in ASD phenotype 1 cells compared to TDs and non-phenotype 1 cells,[1],significantly lower levels of NADH
PDGF-AB: platelet-derived growth factor AB,production of NADH in ASD phenotype 1 cells compared to TDs and non-phenotype 1 cells,[1],no significant differences
hGH(Somatotropin): growth factor that selectively targets the PI3K-Akt-mTOR pathway,production of NADH in ASD phenotype 1 cells compared to TDs and non-phenotype 1 cells,[1],significantly reduced production of NADH
